Structures are written as SMILES.

These results are taken from patent publication US4584379A, “Isoquinoline thromboxane synthetase inhibitors” (Merrell Dow Pharmaceuticals Inc., priority 1985, dated 1986).

Test [1] relates to thromboxane synthetase. Kind of test: iTXB2 production by whole blood after intravenous dosing of rats. Format: in vivo, Sprague-Dawley rats. Conditions: 30 minutes prior to obtaining blood, female rats. As for the experimental part:
Varying doses of the test compound were administered intravenously to female Sprague-Dawley rats weighing between 250-300 g 30 minutes prior to obtaining blood. […] A dose of 10 mg/kg produced approximately a 50% inhibition of iTXB2 production.

Test [2] has as its system thromboxane synthetase. Kind of test: iTXB2 produced during arachidonic acid induced platelet aggregation. Conditions: 1 mM. The format is cell-based, human. As for the experimental part: (§1) The specific inhibitory activity of the present compounds can be determined by the following procedures. For platelet aggregation, blood was collected from normal volunteers into sodium citrate (3.8% w/v) 9:1. The indicated volunteers had not ingested aspirin or other non-steroidal anti-inflammatory drugs for at least 7 days. Platelet rich plasma was prepared from the blood by centrifugation at 200×g for 15 minutes. This plasma was centrifuged at 10,000×g for 2 minutes to obtain platelet poor plasma blank. The platelet rich plasma was incubated at 37° C. for 60 seconds prior to addition of vehicle or compound. The platelet rich plasma was then incubated for an additional 60 seconds prior to the addition of arachidonic acid or ADP. Aliquots (50 μl) were removed at 30 and 60 seconds after the addition of arachidonic acid for determination of iTXB2. Platelet aggregation was monitored in a Model 300 Chronolog aggregometer using the method of Born.

Test [3] relates to platelet rich plasma. Kind of test: arachidonic acid induced platelet aggregation in platelet rich plasma (Born aggregometry). The format is cell-based, human. As to the method: as §1
For another test, the system named is microphages. Kind of test: endogenous arachidonic acid metabolism by microphages. The format is cell-based. As to the method:
To establish if the test compound was a selective thromboxane synthetase inhibitor or a fatty acid cyclooxygenase inhibitor, the effects of the isoquinoline on endogenous arachidonic acid metabolism by microphages was assessed. […] The effect on i-6-keto-PGFα levels was variable. At a concentration of 500 μm it inhibited i-6-keto-PGFα formation and at 250 μm it increased its formation. At all other concentrations it had no affect.

Test [4] has as its system platelet rich plasma. Kind of test: ADP induced platelet aggregation in platelet rich plasma (Born aggregometry). The format is cell-based, human. As for the experimental part:
as §1

Another test deals with washed platelets. Description: 14C-arachidonic acid metabolism by washed platelets (TLC). Format: cell-based, human. As to the method: Washed platelets (400 μl) prepared as above were placed in a cuvette. Either vehicle (50 μl), isoquinoline test compound, or indomethacin was then added. After incubation for 55 seconds at 37° C., 50 μl of calcium chloride (5 mM) was added and, at 60 seconds, 50 μl of ^14 C-arachidonic acid (0.1 μCi, 0.4 mM) was added. Four minutes later, 80 μl of 10% formic acid was added to stop the reaction. The contents were then poured into 6.5 ml of ice-cold ethyl acetate and the cuvette was further rinsed twice with 1 ml of ethyl acetate. The samples were subsequently extracted as previously described. The dried extract was reconstituted in chloroform:methanol (2:1) and spotted onto TLC plates. PGE2 PGF2α, TXB2 (20 μg of each) were spotted as the reference. The plates were developed in a chloroform:methanol, acetic acid, water (90:8:1:0.8) solution. […] Each plate was visualized with iodine vapor, the Rf s noted and then 1 cm zones scraped and counted in a Beckman Liquid Scintillation spectrometer.

As to `O=C(O)c1ccc(NCc2cncc3ccccc23)cc1` [isoquinoline, 4-[(4-isoquinolinylmethyl)amino]benzoic acid], the “inhibition of iTXB2 production” value in the test with thromboxane synthetase [1] (10 mg/kg intravenously) is roughly 50%. Moreover, the “iTXB2 production by whole blood” value with thromboxane synthetase [1] (varying doses intravenously) is recorded as “dose dependent reduction”. In addition, the “amounts of iTXB2 produced during arachidonic acid induced platelet aggregation” value in the test on thromboxane synthetase [2] (30 seconds) and in the test with thromboxane synthetase [2] (60 seconds) was “significantly reduced” in each case. Moreover, the “rate of arachidonic acid induced platelet aggregation” value in the test with platelet rich plasma [3] (0.5 mM) and in the test on platelet rich plasma [3] (1 mM) was “significantly inhibited” throughout. Also, the “basal synthesis of iTXB2 by microphages” value in the test with microphages (10 μM to 1000 μM) is “significantly reduced”. The i-6-keto-PGFα formation result is “increased” with microphages (250 μm), “inhibited” in the test on microphages (500 μm) and “no affect” in the test with microphages (all other concentrations). The iPGE levels entry in the test on microphages (at most concentrations) was “significantly increased”. The “selectivity for thromboxane synthesis” value in the test on microphages (conclusion from iTXB2, iPGE and i-6-keto-PGFα levels) is given as “appears to selectively inhibit thromboxane synthesis”. For the same molecule, the “ADP induced platelet aggregation as compared to control” value in the test with platelet rich plasma [4] (1 mM) is listed as “marked effect”. In addition, the inhibition at 1000 µM in the test with platelet rich plasma [4] (Homo sapiens, Platelet, 1 min, 1000 μM, at 60 seconds, read-out: reduction of ADP aggregation) is 30%. Further, in the test with washed platelets (washed platelets), the “percent of arachidonic acid converted to PGE2” value was “did not affect”. Besides, the “percentage of arachidonic acid converted to TXB2” value in the test with washed platelets (washed platelets) was “reduced”. Besides, in the test with washed platelets (washed platelets, versus vehicle controls), the “total amount of arachidonic acid metabolized via the cyclo-oxygenase pathway” value is “not different from the vehicle controls”.

Regarding `COc1ccc2c(c1)c(CC(=O)O)c(C)n2C(=O)c1ccc(Cl)cc1` [indomethacin, reference compound], the inhibition at 50 µM in the test with washed platelets (Homo sapiens, Platelet, 4 min, read-out: reduction of metabolism of arachidonic acid compared to controls) is 78%.
